The text below walks through data of the supplement of paper PMC11208160.
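Further: IS621 recombinase and bridge RNA in Escherichia coli cells.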

The data set can be described thus: recombinant barcode read abundance after kanamycin selection (control-corrected) (log10(CPM+1)); higher = more efficient recombination; sequences stand for … in AGTGCAGAGAAAATCGGCCAGTTTTCTCTGCCTGCAGTCCGCATGCCGT…AGATTTATGCAGCGGACTGCCTTTCTCCCAAAGTGATAAACCGGACAGTATCATGGACCGGTTTTCCCGGTAATCCGTATTTGCAAGGTTGGTTTCACT; site = the 11-nt target. As for the experimental part:
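Pooled E. coli target-specificity screen for the IS621 bridge recombinase. Each library plasmid pairs an 11-nt target (CT core) with a bridge RNA whose target-binding loop (9-nt LTG + 4-nt RTG) is reprogrammed; the rest of the 177-nt WT IS621 bridge RNA scaffold is fixed. The plasmid is co-electroporated with a WT donor plasmid; recombinase is induced with 0.1 mM IPTG and recombinants are selected on kanamycin. Recombinant barcodes are sequenced, converted to CPM, averaged over two biological replicates and corrected by the unselected control CPM. Molecule = full bridge RNA written as DNA: LTG = specificity nt 1-9, RTG = reverse complement of specificity nt 8-11, in the WT scaffold.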
“AAGAAAGCTTGGGTTCTAACCTGTTGCCT (site AAGAGAGCTAG)”: the “recombinant barcode read abundance (log10)” value was found to be 0.113. Take “AAGAAAGCTTGGGTTCTAACCTGTTGCCT (site AAGATAGCTAG)”: the “recombinant barcode read abundance (log10)” value stood at 0.464. The value for “AAGACCTCTTGGGTTCTAACCTGTTGCCT (site AAGACCTCTAG)” was 1.67; that for “AAGACCTCTTGGGTTCTAACCTGTTGCCT (site TAGACCTCTAG)” was 1.29.

Consider “AAGATACCTTGGGTTCTAACCTGTTGCCT (site AAGATACCTAG)”, for which the “recombinant barcode read abundance (log10)” value turned out to be 2.23.

In the case of “AAGATACCTTGGGTTCTAACCTGTTGCCT (site ATGATACCTAG)”, the “recombinant barcode read abundance (log10)” value turned out to be 0.0427. Regarding “AAGCACTCTTGGGTTCTAACCTGTTGCCT (site AAGCAATCTAG)”, the “recombinant barcode read abundance (log10)” value is 0.195. Regarding “AAGCACTCTTGGGTTCTAACCTGTTGCCT (site AAGCACTCTAG)”, the “recombinant barcode read abundance (log10)” value is 2.58. Turning to “AAGCACTCTTGGGTTCTAACCTGTTGCCT (site AAGCAGTCTAG)”, the “recombinant barcode read abundance (log10)” value turned out to be 0.107. Turning to “AAGCACTCTTGGGTTCTAACCTGTTGCCT (site AAGCATTCTAG)”, the “recombinant barcode read abundance (log10)” value stood at 0. The value for “AAGCAGTCTTGGGTTCTAACCTGTTGCCT (site AAGCAATCTAG)” was 0.44; that for “AAGCAGTCTTGGGTTCTAACCTGTTGCCT (site AAGCACTCTAG)” was 0.206; that for “AAGCAGTCTTGGGTTCTAACCTGTTGCCT (site AAGCAGTCTAG)” was 2.5. Then “AAGCAGTCTTGGGTTCTAACCTGTTGCCT (site AAGCATTCTAG)”, with 0.162. Then “AAGCATCCTTGGGTTCTAACCTGTTGCCT (site AAGCATCCTAG)”, with 1.07; and “AAGCATCCTTGGGTTCTAACCTGTTGCCT (site ACGCATCCTAG)”, with 0.192; and “AAGCATCCTTGGGTTCTAACCTGTTGCCT (site AGGCATCCTAG)”, with 0.358. Regarding “AAGCATCCTTGGGTTCTAACCTGTTGCCT (site ATGCATCCTAG)”, the “recombinant barcode read abundance (log10)” value was 0.00873.

“AAGCATTCTTGGGTTCTAACCTGTTGCCT (site AAGCAATCTAG)”: the “recombinant barcode read abundance (log10)” value is 0.379. Then “AAGCATTCTTGGGTTCTAACCTGTTGCCT (site AAGCACTCTAG)”, with 0.111; and “AAGCATTCTTGGGTTCTAACCTGTTGCCT (site AAGCAGTCTAG)”, with 0.254. For “AAGCATTCTTGGGTTCTAACCTGTTGCCT (site AAGCATTCTAG)”, the “recombinant barcode read abundance (log10)” value is 1.81. Regarding “AAGCGCTCTTGGGTTCTAACCTGTTGCTG (site AAGCGCTCTCA)”, the “recombinant barcode read abundance (log10)” value is 2.39. The value for “AAGCGCTCTTGGGTTCTAACCTGTTGCTG (site TTCTATGCTAC)” was 0.542. Consider “AAGCGTACTTGGGTTCTAACCTGTTGCCT (site AAGCGTACTAG)”, for which the “recombinant barcode read abundance (log10)” value amounted to 1.92. As to “AAGCGTACTTGGGTTCTAACCTGTTGCCT (site AAGCGTCCTAG)”, the “recombinant barcode read abundance (log10)” value was determined as 0.141. Then “AAGCGTACTTGGGTTCTAACCTGTTGCCT (site AAGCGTGCTAG)”, with 0.0421; and “AAGCGTACTTGGGTTCTAACCTGTTGCCT (site AAGCGTTCTAG)”, with 0.128.

Turning to “AAGCGTGCTTGGGTTCTAACCTGTTGCCT (site AAGCGTACTAG)”, the “recombinant barcode read abundance (log10)” value was 1.38. As for “AAGCGTGCTTGGGTTCTAACCTGTTGCCT (site AAGCGTCCTAG)”, the “recombinant barcode read abundance (log10)” value was 0.197. The value for “AAGCGTGCTTGGGTTCTAACCTGTTGCCT (site AAGCGTGCTAG)” was 1.7. The value for “AAGCGTGCTTGGGTTCTAACCTGTTGCCT (site AAGCGTTCTAG)” was 0.216. The value for “AAGCGTTCTTGGGTTCTAACCTGTTGCCT (site AAGCGTACTAG)” was 0.0209; that for “AAGCGTTCTTGGGTTCTAACCTGTTGCCT (site AAGCGTCCTAG)” was 0.111; that for “AAGCGTTCTTGGGTTCTAACCTGTTGCCT (site AAGCGTGCTAG)” was 0.0909. As for “AAGCGTTCTTGGGTTCTAACCTGTTGCCT (site AAGCGTTCTAG)”, the “recombinant barcode read abundance (log10)” value is 1.54. In the case of “AAGCTGCCTTGGGTTCTAACCTGTTGCCT (site AAGCTGCCTAG)”, the “recombinant barcode read abundance (log10)” value worked out at 1.49. As for “AAGCTGCCTTGGGTTCTAACCTGTTGCCT (site GAGCTGCCTAA)”, the “recombinant barcode read abundance (log10)” value came out at 0.049. The value for “AAGGAACCTTGGGTTCTAACCTGTTGCCT (site AAGGAACCTAG)” was 2.59; that for “AAGGAACCTTGGGTTCTAACCTGTTGCCT (site CAGGAACCTAG)” was 1.23; that for “AAGGAACCTTGGGTTCTAACCTGTTGCCT (site GAGGAACCTAG)” was 0.951.

Consider “AAGGAACCTTGGGTTCTAACCTGTTGCCT (site TAGGAACCTAG)”, for which the “recombinant barcode read abundance (log10)” value was 2.11.

Turning to “AAGGAGACTTGGGTTCTAACCTGTTGCCT (site AAAGGGACTAG)”, the “recombinant barcode read abundance (log10)” value stood at 0.116. “AAGGAGACTTGGGTTCTAACCTGTTGCCT (site AAGGAGACTAG)”: the “recombinant barcode read abundance (log10)” value amounted to 2.12. The value for “AAGGCTTCTTGGGTTCTAACCTGTTGCCT (site AAGGCTACTAG)” was 0.171; that for “AAGGCTTCTTGGGTTCTAACCTGTTGCCT (site AAGGCTTCTAG)” was 1.4.

With “AAGGGGTCTTGGGTTCTAACCTGTTGCCT (site AAGGGGTCTAG)”, the “recombinant barcode read abundance (log10)” value was 2.93.

As to “AAGGGGTCTTGGGTTCTAACCTGTTGCCT (site TACGGGTCTAG)”, the “recombinant barcode read abundance (log10)” value was determined as 0.112.

Turning to “AAGGTCCCTTGGGTTCTAACCTGTTGCCA (site AAGGTCCCTTG)”, the “recombinant barcode read abundance (log10)” value was 1.85. “AAGGTCCCTTGGGTTCTAACCTGTTGCCA (site AAGGTTCCTTA)”: the “recombinant barcode read abundance (log10)” value worked out at 0.0911. As for “AAGTCGTCTTGGGTTCTAACCTGTTGCCT (site AAGTCGTCTAG)”, the “recombinant barcode read abundance (log10)” value was 0.832. Consider “AAGTCGTCTTGGGTTCTAACCTGTTGCCT (site ACGTCGTCTAG)”, for which the “recombinant barcode read abundance (log10)” value came out at 0.0906. For “AAGTCGTCTTGGGTTCTAACCTGTTGCCT (site AGGTCGTCTAG)”, the “recombinant barcode read abundance (log10)” value was determined as 0.126. Then “AAGTCGTCTTGGGTTCTAACCTGTTGCCT (site ATGTCGTCTAG)”, with 0.0249; and “AAGTCGTCTTGGGTTCTAACCTGTTGCTA (site AAGTCGTCTTA)”, with 0.857. The value for “AAGTCGTCTTGGGTTCTAACCTGTTGCTA (site GCAATTGCTAG)” was 0.132; that for “AAGTGCTCTTGGGTTCTAACCTGTTGCCG (site AAGTGCTCTCG)” was 1.89.

Take “AAGTGCTCTTGGGTTCTAACCTGTTGCCG (site AGGTGCCCTCG)”: the “recombinant barcode read abundance (log10)” value came to 0.0892. “AAGTTTCCTTGGGTTCTAACCTGTTGCAT (site AAGTGTCCTAT)”: the “recombinant barcode read abundance (log10)” value is 0.118. Then “AAGTTTCCTTGGGTTCTAACCTGTTGCAT (site AAGTTTCCTAT)”, with 0.22; and “AATAACTCTTGGGTTCTAACCTGTTGCCT (site AATAACTCTAG)”, with 0.863; and “AATAACTCTTGGGTTCTAACCTGTTGCCT (site CATAACTCTAG)”, with 0.0701. Then “AATAACTCTTGGGTTCTAACCTGTTGCCT (site GATAACTCTAG)”, with 0.111; and “AATAACTCTTGGGTTCTAACCTGTTGCCT (site TATAACTCTAG)”, with 0.139; and “AATAAGTCTTGGGTTCTAACCTGTTGCCT (site AATAAGTCTAG)”, with 0.483. The value for “AATAAGTCTTGGGTTCTAACCTGTTGCCT (site ACTAAGTCTAG)” was 0.0757. With “AATAAGTCTTGGGTTCTAACCTGTTGCCT (site AGTAAGTCTAG)”, the “recombinant barcode read abundance (log10)” value is 0.566. Then “AATAAGTCTTGGGTTCTAACCTGTTGCCT (site ATTAAGTCTAG)”, with 0.122; and “AATAGAGCTTGGGTTCTAACCTGTTGCAG (site AAGTGAGCTCT)”, with 0.0557.

As to “AATAGAGCTTGGGTTCTAACCTGTTGCAG (site AATAGAGCTCT)”, the “recombinant barcode read abundance (log10)” value was found to be 2.23.

With “AATAGGACTTGGGTTCTAACCTGTTGCTA (site AATAAGACTTG)”, the “recombinant barcode read abundance (log10)” value was determined as 0.0927. In the case of “AATAGGACTTGGGTTCTAACCTGTTGCTA (site AATAGGACTTA)”, the “recombinant barcode read abundance (log10)” value was 0.896.

“AATAGGGCTTGGGTTCTAACCTGTTGCGG (site AATAGGGCTCC)”: the “recombinant barcode read abundance (log10)” value was determined as 2.21.
